tested on: FaDu; assay: Cytotoxicity against human FADU cells assessed as reduction in cell viability after 72 hrs by MTT assay; format: functional; conditions: read-out: LC50 (the source's name)

Row | SMILES | CC50 [nM]
1 | COc1ccc(NC(=O)C(=O)c2cn(C(C)C)c3ccc(Cl)cc23)cc1 | > 10000
2 | CCOC(=O)COc1ccc(NC(=O)C(=O)c2cn(CCOC)c3ccccc23)cn1 | > 10000
3 | CCc1cc(C(=O)C(=O)Nc2ccc(OC)nc2)c2ccccn12 | 110
4 | COc1ccc(NC(=O)C(=O)c2cn(C3CCCC3)c3ccccc23)cn1 | 370
5 | COc1ccc(NC(=O)C(=O)c2cn(C(C)C)c3c(Cl)cccc23)cn1 | 10200
6 | COc1ccc(NC(=O)C(=O)c2cn(CC(C)C)c3ccccc23)cn1 | 317
7 | COc1nsc(NC(=O)C(=O)c2cn(C(C)C)c3ccccc23)n1 | 10400
8 | COCCn1cc(C(=O)C(=O)Nc2ccc(OC(C)(C)C)nc2)c2ccccc21 | 858
9 | COc1ccc(NC(=O)C(=O)c2cn(C(C)C)c3cc(Cl)ccc23)cn1 | 1770
10 | COc1nc(NC(=O)C(=O)c2cn(C(C)C)c3ccccc23)ns1 | > 10000
11 | CCC(C)n1cc(C(=O)C(=O)Nc2ccc(OC)nc2)c2ccccc21 (stereo not drawn) | 68
12 | COc1ccc(NC(=O)C(=O)c2cn(C(C)C)c3ccncc23)cn1 | > 10000
13 | CC(C)n1cc(C(=O)C(=O)Nc2cccnc2)c2ccccc21 | > 10000
14 | COCCn1cc(C(=O)C(=O)Nc2cnc(OC)nc2)c2ccccc21 | 55
15 | COc1ccc(NC(=O)C(=O)c2cn(C(C)C)c3ccccc23)cc1 | 181
16 | COc1ccc(NC(=O)C(=O)c2cn(C(C)C)c3ccccc23)nn1 | 2270
17 | COc1ccc(NC(=O)C(=O)c2cn(C(C)C)c3cccc(OC)c23)cn1 | 7780
18 | COc1ccc(NC(=O)C(=O)c2cn(C(C)C)c3ccc(Cl)cc23)cn1 | > 10000
19 | COc1ccc(NC(=O)C(=O)c2cn(C(C)C)c3c(OC)cccc23)cn1 | > 10000
20 | CC(C)n1cc(C(=O)C(=O)Nc2ccncc2)c2ccccc21 | > 10000
21 | COc1cc(NC(=O)C(=O)c2cn(C(C)C)c3ccccc23)ccn1 | 1750
22 | COCCc1cc(C(=O)C(=O)Nc2ccc(OC(F)(F)F)cc2)c2ccccn12 | 758

Row | SMILES | CC50 [nM]
23 | COc1ccc(NC(=O)C(=O)c2cn(CC3CCO3)c3ccccc23)cn1 (stereo not drawn) | 686
24 | COCCn1cc(C(=O)C(=O)Nc2ccc(OC)nc2)c2cc(OC)ccc21 | > 10000
25 | COCCn1cc(C(=O)C(=O)Nc2ccc(OC)nc2)c2cc(Cl)ccc21 | > 10000
26 | COc1ccc(NC(=O)C(=O)c2cn(CC(C)(C)OC)c3ccccc23)cn1 | > 10000
27 | COc1ccc(NC(=O)C(=O)c2cn(C(C)C)c3cnccc23)cn1 | > 10000
28 | CCOc1ccc(NC(=O)C(=O)c2cn(C(C)C)c3ccccc23)cn1 | 175
29 | COc1ccc2c(C(=O)C(=O)Nc3ccc(OC)nc3)cn(C(C)C)c2c1 | > 10000
30 | COc1ccc(NC(=O)C(=O)c2cn(C(C)C)c3cccnc23)cn1 | > 10000
31 | CCn1cc(C(=O)C(=O)Nc2ccnc(OC)c2)c2ccccc21 | 4180
32 | CC(C)n1cc(C(=O)C(=O)Nc2ccc(OC(F)(F)F)cc2)c2ccccc21 | 8930
33 | COC(=O)CCn1cc(C(=O)C(=O)Nc2ccc(OC)nc2)c2ccccc21 | 168
34 | CCn1cc(C(=O)C(=O)Nc2ccncc2)c2ccccc21 | > 10000
35 | COCCn1cc(C(=O)C(=O)Nc2ccnc(OC)c2)c2ccccc21 | 235
36 | CCCCn1cc(C(=O)C(=O)Nc2ccc(OC)nc2)c2ccccc21 | 18
37 | COCCn1cc(C(=O)C(=O)Nc2ccc(C(F)(F)F)nc2)c2ccccc21 | > 10000
38 | COc1ccc(NC(=O)C(=O)c2cn(C(C)C)c3ccccc23)cc1OC | > 10000
39 | COc1ccc2c(c1)c(C(=O)C(=O)Nc1ccc(OC)nc1)cn2C(C)C | > 10000
40 | COCCn1cc(C(=O)C(=O)Nc2ccncc2)c2ccccc21 | > 10000
41 | COc1ccc(NC(=O)C(=O)c2cn(C(C)C)c3cccc(Cl)c23)cn1 | 2130
42 | COCCn1cc(C(=O)C(=O)Nc2ccc(OC)cc2)c2ccccc21 | 59
43 | CC(C)n1cc(C(=O)C(=O)Nc2ccc(C(F)(F)F)nc2)c2ccccc21 | > 10000
